Results as given in ChEMBL document CHEMBL1201862, “PubChem BioAssay data set” (2004).
The source made the active and inactive calls.

Assays:
Aminopeptidase N = target: T1, Aminopeptidase N (Plasmodium falciparum FcB1/Columbia, UniProt O96935); test: malaria alanyl aminopeptidase activity blockers – biochemical, fluorogenic H-Leu-NHMec substrate, 1536-well (AID 1445); parameters: species or system Plasmodium falciparum 3D7, 3D7
T1 sequence (O96935 whole entry): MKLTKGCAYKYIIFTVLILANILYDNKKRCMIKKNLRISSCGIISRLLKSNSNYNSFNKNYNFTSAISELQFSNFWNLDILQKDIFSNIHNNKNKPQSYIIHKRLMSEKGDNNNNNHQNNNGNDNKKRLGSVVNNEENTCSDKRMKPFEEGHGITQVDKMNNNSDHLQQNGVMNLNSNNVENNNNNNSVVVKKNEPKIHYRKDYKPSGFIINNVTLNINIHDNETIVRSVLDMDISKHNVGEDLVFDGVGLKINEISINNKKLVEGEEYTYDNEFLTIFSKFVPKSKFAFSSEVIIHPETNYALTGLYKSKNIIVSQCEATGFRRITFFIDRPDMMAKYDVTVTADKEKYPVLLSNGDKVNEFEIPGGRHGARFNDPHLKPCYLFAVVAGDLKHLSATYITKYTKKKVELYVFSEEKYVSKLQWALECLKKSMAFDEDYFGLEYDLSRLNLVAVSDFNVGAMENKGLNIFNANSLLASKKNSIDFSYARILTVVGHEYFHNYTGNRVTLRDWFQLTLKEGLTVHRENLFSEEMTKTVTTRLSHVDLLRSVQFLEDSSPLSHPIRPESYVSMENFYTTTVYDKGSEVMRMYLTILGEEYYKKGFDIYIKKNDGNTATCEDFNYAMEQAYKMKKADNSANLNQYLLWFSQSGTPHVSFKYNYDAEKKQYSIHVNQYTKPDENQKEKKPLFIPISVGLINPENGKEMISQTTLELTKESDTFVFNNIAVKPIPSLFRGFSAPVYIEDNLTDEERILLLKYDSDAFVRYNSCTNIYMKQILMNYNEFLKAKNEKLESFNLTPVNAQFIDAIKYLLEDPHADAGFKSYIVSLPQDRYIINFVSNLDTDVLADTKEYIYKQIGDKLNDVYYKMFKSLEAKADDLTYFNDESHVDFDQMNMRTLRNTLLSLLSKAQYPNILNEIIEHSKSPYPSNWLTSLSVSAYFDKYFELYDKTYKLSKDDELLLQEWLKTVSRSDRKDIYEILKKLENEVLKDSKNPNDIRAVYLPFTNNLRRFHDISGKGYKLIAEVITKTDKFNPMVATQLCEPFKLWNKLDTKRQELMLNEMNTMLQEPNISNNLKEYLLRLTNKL

[1] = antiviral protection against BTV-induced cell death – arbovirus, BSR cells, confirmation (AID 1250); format: functional;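 further: protection from viral cytopathic effect measured as cell viability by ATP luminescence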
[2] = target: Melanin-concentrating hormone receptor 1 (Homo sapiens, UniProt Q99705); test: Late-stage fluorescence-based counterscreen for antagonists of the G-protein coupled receptor 7 (GPR7): cell-based dose response assay to identify antagonists of the melanin-concentrating hormone receptor 1 (MCHR1). [Related pubchem assays (depositor defined):AID1861, AID1880, AID1952, AID2148, AID2251, AID2257, AID485339]; format: functional;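 further: stimulated with 30 nM MCH peptide agonist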
Chain of Melanin-concentrating hormone receptor 1 (Q99705 whole entry): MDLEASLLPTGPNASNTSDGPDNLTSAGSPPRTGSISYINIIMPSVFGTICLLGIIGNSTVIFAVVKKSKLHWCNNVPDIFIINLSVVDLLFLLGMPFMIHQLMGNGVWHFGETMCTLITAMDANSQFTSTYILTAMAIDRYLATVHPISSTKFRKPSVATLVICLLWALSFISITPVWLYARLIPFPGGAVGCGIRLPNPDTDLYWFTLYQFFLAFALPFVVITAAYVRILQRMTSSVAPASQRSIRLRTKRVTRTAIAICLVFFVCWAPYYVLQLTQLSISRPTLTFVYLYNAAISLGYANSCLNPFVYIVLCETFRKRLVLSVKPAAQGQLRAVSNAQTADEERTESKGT

[3] = target: Metabotropic glutamate receptor 4 (Homo sapiens, UniProt Q14833); test: Modulation of the Metabotropic Glutamate Receptor mGluR4: Calcium Assay. [Related pubchem assays: 2180, 2199, 2193, 2179, 2182, 2183, 2191, 2181, 2190, 2188, 2185, 2197 ]; format: functional
Chain of Metabotropic glutamate receptor 4 (Q14833 whole entry): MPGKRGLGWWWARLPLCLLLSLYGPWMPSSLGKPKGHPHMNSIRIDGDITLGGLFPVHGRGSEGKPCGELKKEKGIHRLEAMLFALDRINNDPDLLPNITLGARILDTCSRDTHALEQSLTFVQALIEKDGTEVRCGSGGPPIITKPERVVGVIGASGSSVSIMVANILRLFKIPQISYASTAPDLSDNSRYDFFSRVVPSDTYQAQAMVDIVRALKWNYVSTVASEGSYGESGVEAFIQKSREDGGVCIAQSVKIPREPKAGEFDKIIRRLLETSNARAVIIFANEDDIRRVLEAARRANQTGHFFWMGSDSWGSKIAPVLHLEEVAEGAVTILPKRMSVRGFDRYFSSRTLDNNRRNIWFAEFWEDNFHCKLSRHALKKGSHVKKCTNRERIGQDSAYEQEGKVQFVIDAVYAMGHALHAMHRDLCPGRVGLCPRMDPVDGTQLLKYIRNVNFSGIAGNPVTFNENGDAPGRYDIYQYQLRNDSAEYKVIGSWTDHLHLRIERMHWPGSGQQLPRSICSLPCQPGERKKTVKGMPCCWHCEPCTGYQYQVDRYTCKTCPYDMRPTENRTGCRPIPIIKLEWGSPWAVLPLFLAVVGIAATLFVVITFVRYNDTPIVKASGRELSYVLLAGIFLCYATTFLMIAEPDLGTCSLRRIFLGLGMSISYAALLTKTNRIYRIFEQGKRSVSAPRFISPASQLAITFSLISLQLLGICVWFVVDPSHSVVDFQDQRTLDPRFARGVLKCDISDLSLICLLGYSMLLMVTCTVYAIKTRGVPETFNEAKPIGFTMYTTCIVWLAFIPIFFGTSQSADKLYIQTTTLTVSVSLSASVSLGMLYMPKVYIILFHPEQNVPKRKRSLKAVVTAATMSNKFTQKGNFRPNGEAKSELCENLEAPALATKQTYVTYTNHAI

NS3 = NS3 (Hepatitis C virus, UniProt A3EZJ3); test: PubChem AID 2173; parameters: species or system Hepacivirus hominis
Chain of NS3 (A3EZJ3 whole entry): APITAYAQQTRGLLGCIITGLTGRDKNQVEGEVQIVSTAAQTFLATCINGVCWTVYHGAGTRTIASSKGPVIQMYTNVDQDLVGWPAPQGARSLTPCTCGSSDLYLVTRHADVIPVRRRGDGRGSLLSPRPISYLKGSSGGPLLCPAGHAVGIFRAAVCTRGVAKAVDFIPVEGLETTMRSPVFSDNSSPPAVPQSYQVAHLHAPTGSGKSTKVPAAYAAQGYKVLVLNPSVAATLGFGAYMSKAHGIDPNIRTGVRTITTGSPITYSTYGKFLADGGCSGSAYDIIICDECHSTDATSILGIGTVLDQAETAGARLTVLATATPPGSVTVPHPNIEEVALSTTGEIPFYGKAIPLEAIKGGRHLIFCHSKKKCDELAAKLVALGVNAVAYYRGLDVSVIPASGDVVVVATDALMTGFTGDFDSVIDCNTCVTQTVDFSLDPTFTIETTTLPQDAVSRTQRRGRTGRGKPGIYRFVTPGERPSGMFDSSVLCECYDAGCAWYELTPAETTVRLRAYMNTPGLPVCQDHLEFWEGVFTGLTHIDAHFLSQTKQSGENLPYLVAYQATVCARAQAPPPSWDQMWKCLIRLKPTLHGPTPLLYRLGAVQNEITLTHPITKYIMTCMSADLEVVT

[4] = target: T2, Short transient receptor potential channel 4 (Mus musculus, UniProt Q9QUQ5); test: calcium entry via TRPC4 opening agents – cell-based, HEK293 TRPC4/mu-opioid, Fluo-4 calcium, dose response (AID 434937); format: functional
T2 sequence (Q9QUQ5 whole entry): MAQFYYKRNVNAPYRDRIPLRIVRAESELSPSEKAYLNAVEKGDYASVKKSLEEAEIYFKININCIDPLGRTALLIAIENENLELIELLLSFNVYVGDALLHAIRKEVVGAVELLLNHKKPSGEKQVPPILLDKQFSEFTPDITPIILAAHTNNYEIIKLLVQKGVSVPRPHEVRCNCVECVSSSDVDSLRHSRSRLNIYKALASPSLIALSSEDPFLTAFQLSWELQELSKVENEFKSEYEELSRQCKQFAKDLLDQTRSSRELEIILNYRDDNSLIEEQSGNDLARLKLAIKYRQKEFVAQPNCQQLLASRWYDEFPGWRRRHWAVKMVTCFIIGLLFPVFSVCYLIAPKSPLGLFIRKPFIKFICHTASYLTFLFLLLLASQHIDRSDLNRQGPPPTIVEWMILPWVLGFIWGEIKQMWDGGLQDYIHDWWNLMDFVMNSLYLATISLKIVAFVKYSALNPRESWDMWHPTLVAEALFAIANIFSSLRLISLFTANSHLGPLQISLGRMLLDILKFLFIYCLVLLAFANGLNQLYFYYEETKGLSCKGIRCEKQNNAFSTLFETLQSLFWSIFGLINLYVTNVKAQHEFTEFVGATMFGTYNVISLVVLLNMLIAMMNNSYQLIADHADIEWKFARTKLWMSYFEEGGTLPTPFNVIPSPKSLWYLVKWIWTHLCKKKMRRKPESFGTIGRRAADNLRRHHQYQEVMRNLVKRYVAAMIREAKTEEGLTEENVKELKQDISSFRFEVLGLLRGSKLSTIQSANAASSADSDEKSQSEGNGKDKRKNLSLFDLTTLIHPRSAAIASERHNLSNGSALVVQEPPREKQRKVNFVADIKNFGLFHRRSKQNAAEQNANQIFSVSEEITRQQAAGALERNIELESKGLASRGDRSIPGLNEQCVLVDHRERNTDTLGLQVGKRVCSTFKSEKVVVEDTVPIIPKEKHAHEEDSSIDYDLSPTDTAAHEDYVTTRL

cells [5] = format: functional, cell-based
[6] = Luminescence-based counterscreen assay for KLF5 inhibitors: dose response cell-based high throughput screening assay to identify cytotoxic compounds using the IEC-6 intestinal epithelial cell line. [Related pubchem assays: 1700 (Primary screen.), 1834 (Confirmation screen.), 1858 (Summary AID.), 1905 (Counterscreen.)]; format: functional
cells [7] = format: functional, cell-based; remark: listed apart in the source
INS1 = test: INS-1E survival protection against cytokine death – cell-based, luminescence, retest, dose response (AID 449756); format: functional; conditions: Rattus norvegicus;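 further: cell death triggered by IL-1 beta plus TNF-alpha plus IFN-gamma mixture; protective hits raise ATP signal compared with cytokine alone wells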
HEK293 [8] = test: PMA/Ionomycin induced NF-kB luciferase assay in 293- NF-kB-Luc stable cells. [Related pubchem assays: 1299, 1270, 1295, 1375, 1287, 1281, 1293, 1291, 1289, 1280, 465, 1364, 1282, 1372, 1365, 1370, 1367, 1366, 1269, 1373, 1292, 1290, 1302, 1371, 1283, 1271, 1294, 1374, 1368, 1369 ]; format: functional, cell-based; conditions: Homo sapiens
[9] = target: Luciferin 4-monooxygenase (Photinus pyralis, UniProt P08659); test: In vitro luciferase assay using purified luciferase. [Related pubchem assays: 1299, 1270, 1295, 1375, 1287, 1281, 1293, 1291, 1289, 1280, 465, 1364, 1282, 1372, 1365, 1370, 1367, 1366, 1266, 1373, 1292, 1290, 1302, 1371, 1283, 1271, 1294, 1374, 1368, 1369 ]
Chain of Luciferin 4-monooxygenase (P08659 whole entry): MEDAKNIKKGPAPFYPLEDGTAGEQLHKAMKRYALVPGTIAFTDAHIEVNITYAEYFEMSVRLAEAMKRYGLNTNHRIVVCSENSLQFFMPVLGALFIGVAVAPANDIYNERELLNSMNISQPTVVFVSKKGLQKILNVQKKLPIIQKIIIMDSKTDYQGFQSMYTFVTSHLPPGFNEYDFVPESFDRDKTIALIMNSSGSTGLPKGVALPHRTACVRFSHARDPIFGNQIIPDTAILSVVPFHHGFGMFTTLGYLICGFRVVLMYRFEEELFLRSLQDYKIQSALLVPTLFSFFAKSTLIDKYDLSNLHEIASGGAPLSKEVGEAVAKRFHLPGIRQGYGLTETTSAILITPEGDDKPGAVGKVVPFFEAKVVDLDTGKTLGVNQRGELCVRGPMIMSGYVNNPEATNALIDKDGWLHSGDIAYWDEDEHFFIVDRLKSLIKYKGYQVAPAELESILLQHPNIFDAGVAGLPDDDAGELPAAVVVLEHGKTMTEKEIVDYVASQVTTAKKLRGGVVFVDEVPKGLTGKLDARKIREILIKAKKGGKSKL

HEK293 [10] = test: PMA/Ionomycin-induced IL-8 production in HEK293- NF-kB-Luc stable cells. [Related pubchem assays: 1299, 1295, 1375, 1287, 1281, 1293, 1291, 1289, 1280, 465, 1364, 1282, 1372, 1365, 1367, 1366, 1266, 1269, 1373, 1292, 1290, 1302, 1371, 1283, 1271, 1294, 1374, 1368, 1369 ]; format: functional, cell-based; conditions: Homo sapiens
HEK293 [11] = test: Cytotoxicity assay in HEK293 cells. [Related pubchem assays (depositor defined):AID1266, AID1269, AID1270, AID1271, AID1280, AID1281, AID1282, AID1283, AID1287, AID1289, AID1290, AID1291, AID1292, AID1293, AID1294, AID1295, AID1299, AID1302, AID1364, AID1365, AID1366, AID1367, AID1369, AID1370, AID1371, AID1372, AID1373, AID1374, AID1375, AID1384 …; format: functional, cell-based; conditions: Homo sapiens
HEK293 [12] = test: TNF Induced NF-kB Luciferase in 293-NF-kB-Luc Stable Cells. [Related pubchem assays: 1266, 1299, 1269, 1373, 1292, 1290, 1302, 1371, 1283, 1270, 1295, 1271, 1375, 1294, 1374, 1281, 1293, 1291, 1289, 1280, 465, 1368, 1364, 1282, 1372, 1365, 1369, 1370, 1367, 1366 ]; format: functional, cell-based; conditions: Homo sapiens

For `CS(=O)(=O)C1=NSC2=NC(=O)/C(=C\c3ccc(-c4ccccc4)o3)C(=N)N21`, the IC50 (Aminopeptidase N) was 71.1 µM (active) and the IC50 [1] was 36 µM (active).
For `CCOC(=O)c1ccc(-n2ncc(Cl)c(Oc3ccc(OC)cc3)c2=O)cc1`, the IC50 [2] was 4 µM (active).
With `COc1nc(NC(=O)c2ccccn2)ccc1Cl` the EC50 [3] was 6.4 µM (active).
In the case of `Cc1occc1C(=O)NNC(=S)NC(=O)COc1ccc(Cl)cc1Cl`, the IC50 (NS3) is reported as 15.2 µM (not active) and the EC50 [4] is reported as 5.96 µM (active).
For `O=C(N/N=C/c1cc(Br)ccc1OC(=O)c1ccc(Br)cc1)c1ccncc1`, the EC50 (cells [5]) was 20 µM (active), the IC50 [6] was 5.99 µM (active) and the EC50 (cells [7]) was 121 µM (active). The AC50 (INS1) was 2.29 µM (active).
With `COc1cc(NC(=O)c2cccc3c2C(=O)N(Cc2cccnc2)C3)cc(OC)c1OC` the EC50 (HEK293 [8]) was 0.744 µM (active), the EC50 [9] was > 8 µM (not active) and the EC50 (HEK293 [10]) was 13.9 µM (not active). The EC50 (HEK293 [11]) was > 8 µM (inactive) and the EC50 (HEK293 [12]) was > 8 µM (not active).
